Where two headings read alike, the source gives them in different places. *1 amine or outer side, *2 acyl side, *3 side chain or, on linkers, in order; H or OH if unused. Where a SMILES comes first, the peptide text is derived from it. Bridges are numbered along the chain shown (N, C = ends). Roman numbers before positions name the chains, in order. [ ]: non-standard residue; d: D form. The star is where a group is joined. X3 = CN1/C(=C/C=C/C=C/C2=[N+](CCCCCC(=O)*)c3ccc4ccccc4c3C2(C)C)C(C)(C)c2c1ccc1ccccc21; Dolaproine = CO[C@@H]([C@@H]1CCCN1)[C@@H](C)C(=O)O; Dil = CC[C@H](C)[C@H](NC)[C@@H](CC(=O)O)OC; X4 = O=C1CC([*:2])C(=O)N1CCCCCC(=O)[*:1]; γGlu = O=C(O)[C@H](CCC(=O)[*:2])N[*:1]; PABC = O=C(OCc1ccc(N[*:1])cc1)[*:2]; X2 = C[C@@H](N*)[C@@H](O)c1ccccc1; Trx = NC[C@H]1CC[C@H](C(=O)O)CC1; Cit = NC(=O)NCCC[C@H](N)C(=O)O; NMeV = CN[C@H](C(=O)O)C(C)C; CO = O=C([*:1])[*:2]; Ahx = NCCCCCC(=O)O
Key:
PSMA receptor = conditions: cited from earlier work
Excerpt: Prostate-specific membrane antigen (PSMA) is a type II transmembrane protein that is overexpressed (by 100–1000 fold) by virtually all prostate cancers. PSMA expression is further increased in poorly differentiated, metastatic, hormone-refractory carcinomas and in cancer cells from castration-resistant prostate cancer patients. Increased PSMA expression is correlated with the risk of early prostate cancer recurrence after radical prostatectomy. […] BIND014 increased intr ...

[1] = test system: tumor-free athymic nude mice; assay: Maximum tolerated dose, single i.v. dose; format: in vivo, mouse; conditions: male nude mice, 3 per dose group, 14 days, 20% body weight loss or overt toxicity as end point
Excerpt: Mice were monitored daily for 14 days.

[2] = test system: PSMA-negative PC3flu cells; assay: In vitro cytotoxicity assay (CCK-8), PC3flu; format: cell-based, human; conditions: 72 h incubation, CCK-8; mean ± SD
Protocol: (§1) Cells (1000/well) were seeded in 96-well culture plates the day before treatment.

[3] = test system: heterotopic PC3pip tumors; assay: Heterotopic PC3pip tumor survival study; format: in vivo
Protocol: Male athymic nude mice were implanted subcutaneously with 1 × 10^6 of PC3pip cells 100 μL of matrigel. When tumor size reached approximately 100 mm^3 (tumor volume = Length × width^2/2), mice received drugs through tail vein injection every 4 days with a total of five doses. Mice were treated every 4 days with a total of five doses. Animals were weighed and tumor size measured every other day for 90 days. Cures were defined as no tumor present at end of the 90-day study. When tumors became too large or animals were moribund they were euthanized. Five mice were used in each group.

[4] = test system: PSMA-positive PC3pip cells; assay: In vitro cytotoxicity assay (CCK-8), PC3pip; format: cell-based, human
Protocol: as §1

[5] = test system: α-tubulin in PC3pip cells; assay: Immunofluorescence analysis of alpha-tubulin, PC3pip; format: cell-based, human; conditions: 5 nM, 24 h, Alexa Fluor 488 α-tubulin antibody
Protocol: (§2) Cells were washed and fixed with 4% paraformaldehyde for 10 min, permeabilized with 0.1% Triton™ X-100 for 10 min, and blocked with 1% BSA for 1 h at room temperature. Alpha-tubulin (B5-1-2) Alexa Fluor 488 Mouse Monoclonal Antibody (Invitrogen) was then added at 2 µg/mL in 0.1% BSA and incubated for 3 h at room temperature. Cells were counterstained with DAPI, mounted with Fluor-Mount aqueous mounting solution, and observed under Leica DM4000B fluorescence microscopy at 40×.

[6] = Stability on incubation in PBS (without cathepsin), HPLC; format: in vitro ADME; conditions: incubation with PBS without cathepsin, triplicate
Protocol: (§3) Cathepsin is a prevalent protease that PSMA internalized ligands will encounter as they enter into late endosomes/lysosomes. To investigate if PSMA-targeted drug conjugates were cleavable by cathepsin B, the two conjugates were incubated with or without cathepsin protease and chromatographed by high performance liquid chromatography (HPLC).
(§4) At different time intervals, 40 μL of the solution was taken out into tubes loaded with 1 μL of 1 mM E64 protease inhibitor. […] Studies were performed in triplicate.

[7] = test system: α-tubulin in PC3flu cells; assay: Immunofluorescence analysis of alpha-tubulin, PC3flu; format: cell-based, human; conditions: 5 nM, 24 h, Alexa Fluor 488 α-tubulin antibody
Protocol: as §2

[8] = test system: PSMA-negative PC3flu cells; assay: In vitro cellular uptake (confocal fluorescence), PC3flu; format: cell-based, human; conditions: 50 nM conjugate, 4 h, 37 °C, confocal microscopy
Protocol: Figure 2 In vitro fluorescence studies of PSMA-1-MMAE-Cy5.5 conjugates. In vitro cellular uptake results of PSMA-targeted drug conjugates. Cells were incubated with 50 nM of drug conjugates for 4 h. Nuclei were stained by DAPI and are false colored blue, lysosomes were detected by LysoOrange and are false colored green, and drug conjugates are false colored red. Selective uptake was observed only in PC3pip cells and the conjugates were mainly located in lysosomes. Specificity of drug conjugates for PSMA binding was evaluated by including 1 mM of unlabeled PSMA-1 ligand during incubations. […] Images are taken at 40×. Representative images are shown from three independent experiments.
PC3pip and PC3flu cells were seeded in µ-Slide 8-Well Chamber Slide (ibidi GmbH, Munich, Germany) at 2000 cells/well. […] Cells were washed with PBS and stained with DAPI and LysoOrange (Abcam Inc., Cambridge, UK) for 30 min at 37 °C and 5% CO2, after which they were washed again with PBS and fresh medium added. Selectivity was determined by including 20-fold excess of the PSMA-1 ligand. The uptake and localization of the drug conjugates were visualized under a confocal microscope (Leica Biosystem, Wetzlar, Germany) at 40×.

human liver cathepsin B = molecular target: T1, human liver cathepsin B (Homo sapiens, UniProt P07858); assay: Enzymatic cleavage by cathepsin B, HPLC analysis; format: in vitro ADME; conditions: activated human liver cathepsin B, 2 μM conjugate, 37 °C, triplicate
T1 construct: purchased Anthens Research and Technology, Anthens, AL, USA (so in the source); host or cells: human liver (tissue-derived enzyme)
Protocol: as §3, §4

[9] = test system: heterotopic PC3pip and PC3flu tumors; assay: In vivo NIR fluorescence imaging, mice bearing PC3pip and PC3flu tumors; design: species or system mouse; conditions: 40 nmol/kg i.v., 24-h post-injection, n = 5
Protocol: Under guidelines of the animal care and use committee at Case Western Reserve University (IACUC#150033) 6–8-week old male Balb/c athymic nude mice were implanted subcutaneously with 1 × 10^6 of PC3flu and PC3pip in 100 μL of matrigel on the left and right flank, respectively. […] Fluorescence imaging was performed using the Maestro In Vivo Imaging system (Perkin-Elmer Inc., Waltham, MA, USA). At 72-h post injection, mice were euthanized, tumor and organs were extracted for ex vivo imaging. Tumors were snap-frozen in OCT, cut into 10 μm thick sections and fixed on slides. The fluorescence signal from cy5.5 was observed under a Leica DM4000B microscope.

[10] = test system: heterotopic PC3pip tumors; assay: Heterotopic PC3pip tumor survival study; format: in vivo; conditions: 160 nmol/kg, tumors extracted on day 4, compared with PSMA-1-McMMAE-Cy5.5
[11] = In vitro cytotoxicity assay (CCK-8), PC3pip; format: cell-based, human
Protocol: as §1

[12] = 160 nmol/kg i.v. every 4 days, five doses, n = 5
[13] = 72 h incubation, CCK-8, mean ± SD

O=C(O)CCC(NC(=O)NC(CCC(=O)O)C(=O)O)C(=O)O (stereo not drawn) [DUPA, 2-(3-(1,3-dicarboxypropyl)-ureido) pentanedioic acid]
Ki (PSMA receptor; read-out: Ki to PSMA receptor (DUPA)): 8 nM

CC[C@H](C)[C@@H]([C@@H](CC(=O)N1CCC[C@H]1[C@H](OC)[C@@H](C)C(=O)N[C@H](C)[C@@H](O)c1ccccc1)OC)N(C)C(=O)[C@@H](NC(=O)[C@@H](NC)C(C)C)C(C)C [MMAE, monomethyl auristatin E, reference compound] (H-[NMeV]V[Dil][Dolaproine]-X2)
maximum tolerated dose (MTD) [1]: 700 nmol/kg
EC50 [2]: 0.21 ± 0.04 nM
tumor growth (in words), 160 nmol/kg [3, 12]: did not show any antitumor activity
therapeutic index ([3]; MTD/effective dose): 1
lowest dose to effectively inhibit tumor growth ([3]; i.v. every 4 days, five doses, tumor growth inhibited for 30 days, n = 5): 700 nmol/kg
EC50 [4, 13]: 0.24 ± 0.05 nM
selectivity, differential cytotoxicity ratio between PC3pip and PC3flu cells ([4]; more potent for PC3pip than PC3flu): no selectivity

CC[C@H](C)[C@@H]([C@@H](CC(=O)N1CCC[C@H]1[C@H](OC)[C@@H](C)C(=O)N[C@H](C)[C@@H](O)c1ccccc1)OC)N(C)C(=O)[C@@H](NC(=O)[C@H](C(C)C)N(C)C(=O)CCCCCN1C(=O)CC(SC[C@H](NC(=O)[C@@H](CCC(=O)O)NC(=O)[C@@H](CCC(=O)O)NC(=O)[C@@H](CCC(=O)O)NC(=O)CCCCCNC(=O)[C@H]2CC[C@H](CNC(=O)CC[C@H](NC(=O)N[C@@H](CCC(=O)O)C(=O)O)C(=O)O)CC2)C(=O)NCCCCCC(=O)N[C@@H](CCCCNC(=O)CCCCC[N+]2=C(/C=C/C=C/C=C3/N(C)c4ccc5ccccc5c4C3(C)C)C(C)(C)c3c2ccc2ccccc32)C(N)=O)C1=O)C(C)C (stereo partly drawn) [PSMA-1-McMMAE-Cy5.5]
disruption of α-tubulin in PC3pip cells (in words) [5]: no apparent disruption of tubulin
stability in PBS (in words) [6]: stable
disruption of α-tubulin in PC3flu cells (in words) [7]: no apparent disruption of tubulin
cellular uptake, fluorescence in PC3flu cells (in words) [8]: no fluorescence signal was observed
cleavage by cathepsin B (in words) (human liver cathepsin B): remained intact
EC50, cytotoxicity to PC3flu cells [2]: no EC50 values could be obtained
uptake in PSMA-negative PC3flu tumors (in words) [9]: little to no detectable uptake
EC50, cytotoxicity to PC3pip cells [4, 13]: no EC50 values could be obtained

CC[C@H](C)[C@@H]([C@@H](CC(=O)N1CCC[C@H]1[C@H](OC)[C@@H](C)C(=O)N[C@H](C)[C@@H](O)c1ccccc1)OC)N(C)C(=O)[C@@H](NC(=O)[C@H](C(C)C)N(C)C(=O)OCc1ccc(NC(=O)[C@H](CCCNC(N)=O)NC(=O)[C@@H](NC(=O)CCCCCN2C(=O)CC(SC[C@H](NC(=O)[C@@H](CCC(=O)O)NC(=O)[C@@H](CCC(=O)O)NC(=O)[C@@H](CCC(=O)O)NC(=O)CCCCCNC(=O)[C@H]3CC[C@H](CNC(=O)CC[C@H](NC(=O)N[C@@H](CCC(=O)O)C(=O)O)C(=O)O)CC3)C(=O)NCCCCCC(=O)N[C@@H](CCCCNC(=O)CCCCC[N+]3=C(/C=C/C=C/C=C4/N(C)c5ccc6ccccc6c5C4(C)C)C(C)(C)c4c3ccc3ccccc43)C(N)=O)C2=O)C(C)C)cc1)C(C)C (stereo partly drawn) [PSMA-1-VcMMAE-Cy5.5] (I: V[Cit][PABC][NMeV]V[Dil][Dolaproine]-X2 / II: {Glu-CO-γGlu-Trx-Ahx}-[dE][dE][dE]C[Ahx]K(X3)-NH2; linker I:N-II:4 via X4)
disruption of α-tubulin in PC3pip cells (in words) [5]: selective tubulin disruption
stability in PBS (in words) [6]: stable
disruption of α-tubulin in PC3flu cells (in words) [7]: no obvious changes in α-tubulin structure
apoptosis, caspase 3 staining of tumors (in words) [10]: significantly more apoptosis
cellular uptake, fluorescence in PC3flu cells (in words) [8]: no fluorescence signal was observed
cleavage by cathepsin B (in words) (human liver cathepsin B): degraded rapidly
half-life in the presence of cathepsin (human liver cathepsin B): 19.8 min
cures (tumor-free mice at end of 90-day study), 160 nmol/kg [3, 12]: 3/5 and three out of five
tumor growth (in words), 160 nmol/kg [3, 12]: effectively inhibited tumor growth
cures, lower dose group of Figure S4B ([3]; dose group not printed beside the label, i.v. every 4 days, five doses, n = 5): 1/5
uptake in PSMA-negative PC3flu tumors (in words) [9]: little to no detectable uptake
EC50 ([11]; 72 h, CCK-8, in the presence of protease inhibitor E64 (50 μM given for the Cy5.5 conjugates), read-out: EC50, cytotoxicity to PC3pip cells + E64): 3.66 nM
EC50 ([11]; 72 h incubation, CCK-8, mean ± SD, read-out: EC50, cytotoxicity to PC3pip cells): 0.84 nM

NCCCC[C@H](NC(=O)N[C@@H](CCC(=O)O)C(=O)O)C(=O)O [ZJ24, (S)-2-(3-((S)-5-amino-1-carboxypentyl)ureido) pentanedioic acid]
Ki (PSMA receptor; read-out: Ki to PSMA (ZJ24)): 0.3 nM

— paper PMC7865627, “Small Molecule-Based Prodrug Targeting Prostate Specific Membrane Antigen for the Treatment of Prostate Cancer” (Cancers, 2021)
